Columns and labels:
Details in all cases: 24 h
U2OS [1] = assay: nuclei count in HPG assay relative to DMSO (% of DMSO); higher = more viable cells
Description: (§1)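 Validation screen in U2OS cells: hits tested at 1, 3 and 10 uM for 24 h in duplicate plates. Translation was read by OPP incorporation (1 h pulse) and HPG incorporation (30 min in methionine-free medium), quantified by high-throughput microscopy alongside nuclei counts. All values are normalised to DMSO (= 100).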

U2OS [2] = assay: nuclei count in OPP assay relative to DMSO (% of DMSO); higher = more viable cells
Description: as §1

U2OS [3] = assay: mean HPG incorporation (global translation) relative to DMSO (% of DMSO); higher = more protein synthesis
Description: as §1

U2OS [4] = assay: mean OPP incorporation (global translation) relative to DMSO (% of DMSO); higher = more protein synthesis
Description: as §1

Row | Compound | nuclei count in HPG assay (U2OS [1]; 1 µM) | nuclei count in HPG assay (U2OS [1]; 3 µM) | nuclei count in HPG assay (U2OS [1]; 10 µM) | nuclei count in OPP assay (U2OS [2]; 1 µM) | nuclei count in OPP assay (U2OS [2]; 3 µM) | nuclei count in OPP assay (U2OS [2]; 10 µM) | mean HPG incorporation (U2OS [3]; 1 µM) | mean HPG incorporation (U2OS [3]; 3 µM) | mean HPG incorporation (U2OS [3]; 10 µM) | mean OPP incorporation (U2OS [4]; 1 µM) | mean OPP incorporation (U2OS [4]; 3 µM) | mean OPP incorporation (U2OS [4]; 10 µM)
1 | COc1cc(C)c(/C=C/C(C)=C/C=C/C(C)=C/C(=O)O)c(C)c1C [Acitretin] | 91.8 | 95.3 | 95.7 | 91.4 | 89.8 | 94.2 | 99.8 | 108 | 87 | 107 | 109 | 109
2 | CC(=O)O[C@@H]1C[C@H]2C(C)(C)C(=O)C=C[C@]2(C)[C@H]2CC[C@@]3(C)[C@H](c4ccoc4)OC(=O)[C@H]4O[C@]43[C@@]21C [Gedunin] | 103 | 101 | 94.7 | 97.7 | 96.4 | 95.9 | 91.2 | 88.7 | 66.3 | 112 | 114 | 115
3 | Nc1ccc(-c2cccc3c(=O)cc(N4CCOCC4)oc23)cc1 [PI 828] | 108 | 94.6 | 85.2 | 101 | 89.8 | 81.9 | 73.5 | 64.3 | 41.5 | 92.1 | 83.1 | 54.1
4 | CC(C)(C)c1nc(-c2cccc(NS(=O)(=O)c3c(F)cccc3F)c2F)c(-c2ccnc(N)n2)s1 | 96.6 | 100 | 104 | 101 | 102 | 104 | 50.8 | 48 | 106 | 102 | 97.2 | 114
5 | CCCc1cc(C)[nH]c(=O)c1CNC(=O)c1cc(-c2ccc(N3CCN(C(C)C)CC3)nc2)cc2c1cnn2C(C)C [UNC1999] | 93.7 | 94.7 | 80.6 | 89.3 | 93.6 | 73.9 | 111 | 119 | 77.1 | 108 | 119 | 122
6 | COc1cc(COc2cc(N)c(Cl)cc2C(=O)CCC2CCN(CCNS(C)(=O)=O)CC2)cc(OC)c1 | 100 | 106 | 90.1 | 95.1 | 97.5 | 79.8 | 82.2 | 83.4 | 58.1 | 121 | 122 | 120
7 | C[C@]12CC[C@@H]3c4ccc(O)cc4C[C@@H](CCCCCCCCC[S+]([O-])CCCC(F)(F)C(F)(F)F)[C@H]3[C@@H]1CC[C@@H]2O (stereo partly drawn) [Fulvestrant] | 97 | 101 | 89.1 | 98.7 | 96.4 | 93.8 | 118 | 125 | 115 | 115 | 123 | 115
8 | CCOc1cc(C(=O)Nc2ccc(Cl)c(-c3nc4ccccc4[nH]3)c2)cc(OCC)c1OCC [SANT-2] | 102 | 105 | 97.5 | 102 | 109 | 104 | 97.5 | 92.7 | 74.1 | 117 | 114 | 121
9 | Oc1ccc(Nc2nc(-c3ccc(Cl)cc3)cs2)cc1 [SKI II] | 99 | 88.9 | 72.6 | 88.5 | 85.3 | 75.2 | 92.6 | 79.3 | 55.7 | 91 | 83.5 | 69.5
10 | CC1=C(/C=C/C(C)=C/C=C/C(C)=C/C(=O)Nc2ccc(O)cc2)C(C)(C)CCC1 [Fenretinide] | 102 | 93.9 | 86.7 | 97.1 | 96.5 | 87.9 | 98.1 | 93.5 | 96.7 | 107 | 109 | 117
11 | COc1ccccc1S(=O)(=O)Nc1ccc2c(c1)CN(C)C(=O)N2 [PFI-1] | 103 | 101 | 101 | 99.5 | 106 | 106 | 95.7 | 93.2 | 87 | 83.4 | 56.2 | 45.9
12 | Cc1cn(-c2cc(NC(=O)c3ccc(C)c(Nc4nccc(-c5cccnc5)n4)c3)cc(C(F)(F)F)c2)cn1 [Nilotinib (AMN-107)] | 101 | 91.3 | 98.5 | 96.6 | 94.2 | 80.2 | 95 | 93.5 | 92.5 | 112 | 120 | 116
13 | CNC(=O)c1cccc(-c2ccc3c(N4CCOC[C@@H]4C)nc(N4CCOC[C@@H]4C)nc3n2)c1 [AZD2014] | 84.1 | 78 | 75 | 85.4 | 79.4 | 72.2 | 44.3 | 36.7 | 34.8 | 57.6 | 36.3 | 35.6
14 | Cc1cc(CS(=O)(=O)c2ccccc2)cc(OCc2ccc(CN3CCC[C@@H]3CO)cc2)c1 [PF-543] | 102 | 99.2 | 92.2 | 104 | 98.9 | 94.3 | 97.1 | 81.9 | 89.6 | 111 | 117 | 130

— the supplement of paper PMC8183993
